Data taken from patent US9255110B2 (Hoffmann-La Roche Inc., priority 2010, dated 2016).
Structures can show the parent of a compound that is named as a salt.

Target: IRAK-4 (Homo sapiens (Human), UniProt Q9NWZ3)
Test: In vitro IRAK-4 kinase assay
Format: biochemical
Details: purified recombinant IRAK-4, 50 uM ATP, 33P peptide phosphorylation
Experimental: Purified recombinant IRAK-4 protein was incubated with 250 uM synthetic peptide ([…]) in 30 ul of kinase buffer including (20 mM MOPS pH7.2, 25 mM beta glycerol phosphate, 5 mM EGTA, 1 mM sodium orthovanadate, 1 mM DTT, 50 uM ATP, 20 mM MgCl2, 10 uCi γ-^33P, 0.1% BSA) for the indicated time. For purified recombinant IRAK-1 protein kinase assay, 50 uM ATP was used. A 25 ul aliquot of the reaction mixture was transferred on to p81 phosphocellulose squares (Upstate Biotechnology, Lake Placid, N.Y.). The assay squares were washed three times with 0.75% phosphoric acid and once with acetone. Enzyme activity was measured by determining the bound radioactivity by liquid scintillation counting.

Sequence of IRAK-4 (Q9NWZ3 whole entry, species assumed): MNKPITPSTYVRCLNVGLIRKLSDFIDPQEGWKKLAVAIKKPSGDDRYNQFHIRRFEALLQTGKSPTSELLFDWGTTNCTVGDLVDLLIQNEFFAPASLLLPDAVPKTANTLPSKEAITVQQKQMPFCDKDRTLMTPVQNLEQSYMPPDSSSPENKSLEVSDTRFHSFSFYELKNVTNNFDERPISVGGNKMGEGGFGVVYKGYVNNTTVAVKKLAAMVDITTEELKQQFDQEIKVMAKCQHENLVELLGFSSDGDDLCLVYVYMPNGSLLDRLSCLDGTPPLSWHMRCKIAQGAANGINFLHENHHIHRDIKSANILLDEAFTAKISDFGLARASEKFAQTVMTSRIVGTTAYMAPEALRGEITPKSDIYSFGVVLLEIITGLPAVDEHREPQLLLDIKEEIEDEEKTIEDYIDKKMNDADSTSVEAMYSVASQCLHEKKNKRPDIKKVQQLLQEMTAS

Row | Compound | IC50 [nM]
1 | 2-(cis-2-Amino-cyclohexylamino)-thieno[3,2-d]pyrimidine-7-carboxylic acid quinolin-8-ylamide [Example 22] | 28
2 | 2-(cis-2-amino-cyclohexylamino)-thieno[3,2-d]pyrimidine-7-carboxylic acid (5,6-dimethoxy-pyridin-2-yl)-amide [Example 27] | 31
3 | CNCC1CCN(c2ccc(Cl)cc2NC(=O)c2csc3cncnc23)CC1 [Example 8, Thieno[3,2-d]pyrimidine-7-carboxylic acid [5-chloro-2-(4-methylaminomethyl-piperidin-1-yl)-phenyl]-amide] | 8
4 | CC(O)CCOc1cc2ncccc2cc1NC(=O)c1csc2cncnc12 (stereo not drawn) [Example 28] | 33
5 | COc1cnc2c(C(=O)Nc3cc(Cl)ccc3N3CCC(CO)CC3)cnn2c1 [Example 29] | 33
6 | NCC1CCN(c2ccc(Cl)cc2NC(=O)c2cnn3cccnc23)CC1 [Example 31, Pyrazolo[1,{tildeover (5)}alpha] pyrimidine-3-carboxylic acid [2-(4-aminomethyl-piperidin-1-yl)-5-chloro-phenyl]-amide] | 37
7 | O=C(Nc1cc2cccnc2cc1OC1CCNCC1)c1cnn2cccnc12 [Example 32, Pyrazolo[1,5-alpha]pyrimidine-3-carboxylic acid [7-(piperidin-4-yloxy)-quinolin-6-yl]-amide hydrochloride] | 40
8 | COc1cc2ncccc2cc1NC(=O)c1cnn2cccnc12 [Example 33, Pyrazolo[1,{tildeover (5)}alpha] pyrimidine-3-carboxylic acid (7-methoxy-quinolin-6-yl)-amide] | 43
9 | Cc1cc2cc(-c3ccc(CO)cc3)c(NC(=O)c3cnn4cccnc34)cc2[nH]1 [Example 36, Pyrazolo[1,5-alpha]pyrimidine-3-carboxylic acid [5-(4-hydroxymethyl-phenyl)-2-methyl-1H-indol-6-yl]-amide] | 52
10 | O=C(Nc1cc(Cl)ccc1N1CCC(CO)CC1)c1cnn2cccnc12 [Example 42, Pyrazolo[1,5-alpha]pyrimidine-3-carboxylic acid [5-chloro-2-(4-hydroxymethyl-piperidin-1-yl)-phenyl]-amide] | 72
11 | NCc1ccc(-c2ccc(Cl)cc2NC(=O)c2cnn3cccnc23)cc1 [Example 46, Pyrazolo[1,{tildeover (5)}alpha] pyrimidine-3-carboxylic acid (4′-aminomethyl-4-chloro-biphenyl-2-yl)-amide] | 81
12 | O=C1Cc2cc(N3CCCCC3)c(NC(=O)c3cnn4cccnc34)cc2N1 [Example 48, Pyrazolo[1,5-alpha]pyrimidine-3-carboxylic acid (2-oxo-5-piperidin-1-yl-2,3-dihydro-1H-indol-6-yl)-amide] | 98
13 | COc1cc2ncccc2cc1NC(=O)c1csc2cnc(NCCCN)nc12 [Example 50, 2-(3-Amino-propylamino)-thieno[3,2-d]pyrimidine-7-carboxylic acid (7-methoxy-quinolin-6-yl)-amide] | 101
14 | NC(=O)c1cnc2c(C(=O)Nc3cc(Cl)ccc3OC3CCC(O)CC3)cnn2c1 (stereo not drawn) [Example 52, Pyrazolo[1,5-alpha]pyrimidine-3,6-dicarboxylic acid 6-amide-3-{[5-chloro-2-(4-hydroxy-cyclohexyloxy)-phenyl]-amide}] | 107
15 | O=C(Nc1cc2cccnc2cc1OC1CCNCC1)c1csc2cncnc12 [Example 56, Thieno[3,2-d]pyrimidine-7-carboxylic acid [7-(piperidin-4-yloxy)-quinolin-6-yl]-amide hydrochloride] | 125
16 | COc1cc2ncccc2cc1NC(=O)c1csc2cnc(N(CCO)C(C)C)nc12 [Example 57, 2-[(2-Hydroxy-ethyl)-isopropyl-amino]-thieno[3,2-d]pyrimidine-7-carboxylic acid (7-methoxy-quinolin-6-yl)-amide] | 127
17 | O=C(Nc1cc2cccnc2cc1OCCCO)c1csc2cncnc12 [Example 58, Thieno[3,2-d]pyrimidine-7-carboxylic acid [7-(3-hydroxy-propoxy)-quinolin-6-yl]-amide] | 131
18 | NCC1CCN(c2c(N)cccc2NC(=O)c2cnn3cccnc23)CC1 [Example 59, Pyrazolo[1,5-alpha]pyrimidine-3-carboxylic acid [3-amino-2-(4-aminomethyl-piperidin-1-yl)-phenyl]-amide] | 133
19 | O=C(Nc1cc(Cl)ccc1N1CCC(O)CC1)c1cnn2cccnc12 [Example 60, Pyrazolo[1,5-alpha]pyrimidine-3-carboxylic acid [5-chloro-2-(4-hydroxy-piperidin-1-yl)-phenyl]-amide] | 136
20 | O=C(Nc1cc(Cl)ccc1OC1CCC(O)CC1)c1cnn2cc(Br)cnc12 (stereo not drawn) [Example 61, 6-Bromo-pyrazolo[1,5-alpha]pyrimidine-3-carboxylic acid [5-chloro-2-(4-hydroxy-cyclohexyloxy)-phenyl]-amide] | 137

Row | Compound | IC50 [nM]
21 | Nc1cccc(NC(=O)c2cnn3cccnc23)c1N1CCCCC1 [Example 63, Pyrazolo[1,5-alpha]pyrimidine-3-carboxylic acid (3-amino-2-piperidin-1-yl-phenyl)-amide] | 156
22 | O=C(Nc1cc2ccccc2cc1OC1CCC(O)C1)c1cnn2cccnc12 (stereo not drawn) [Example 65, Pyrazolo[1,5-alpha]pyrimidine-3-carboxylic acid [3-(3-hydroxy-cyclopentyloxy)-naphthalen-2-yl]-amide] | 177
23 | O=C(Nc1cc(CO)ccc1N1CCCCC1)c1cnn2cccnc12 [Example 66, Pyrazolo[1,5-alpha]pyrimidine-3-carboxylic acid (5-hydroxymethyl-2-piperidin-1-yl-phenyl)-amide] | 199
24 | NC(=O)c1cnc2c(C(=O)Nc3cc(Cl)ccc3O[C@H]3CC[C@@H](O)CC3)cnn2c1 [Example 67, Pyrazolo[1,5-alpha]pyrimidine-3,6-dicarboxylic acid 6-amide 3-{[5-chloro-2-(4-hydroxy-cyclohexyloxy)-phenyl]-amide}] | 203
25 | O=C(Nc1cc(Cl)ccc1-c1ccc(CO)cc1)c1cnn2cccnc12 [Example 68, Pyrazolo[1,5-alpha]pyrimidine-3-carboxylic acid (4-chloro-4′-hydroxymethyl-biphenyl-2-yl)-amide] | 218
26 | COc1cc2[nH]ncc2cc1NC(=O)c1cnn2cccnc12 [Example 69, Pyrazolo[1,5-alpha]pyrimidine-3-carboxylic acid (6-methoxy-1H-indazol-5-yl)-amide] | 231
27 | NC1CCN(c2ccc(Cl)cc2NC(=O)c2cnn3cccnc23)CC1 [Example 70, Pyrazolo[1,{tildeover (5)}-alpha] pyrimidine-3-carboxylic acid [2-(4-amino-piperidin-1-yl)-5-chloro-phenyl]-amide] | 251
28 | COc1cnc2c(C(=O)Nc3cc(Cl)ccc3N3CCC(CN)CC3)cnn2c1 [Example 71, 6-Methoxy-pyrazolo[1,5-alpha]pyrimidine-3-carboxylic acid [2-(4-aminomethyl-piperidin-1-yl)-5-chloro-phenyl]-amide] | 254
29 | COc1cc2cc(C)[nH]c2cc1NC(=O)c1cnn2cccnc12 [Example 72, Pyrazolo[1,5-alpha]pyrimidine-3-carboxylic acid (5-methoxy-2-methyl-1H-indol-6-yl)-amide] | 255
30 | COc1cc2ncccc2cc1NC(=O)c1csc2cnc(NCC(C)C)nc12 [Example 73, 2-Isobutylamino-thieno[3,2-d]pyrimidine-7-carboxylic acid (7-methoxy-quinolin-6-yl)-amide] | 271
31 | CC(C)Oc1ccc(Cl)cc1NC(=O)c1csc2cncnc12 [Example 74, Thieno[3,2-d]pyrimidine-7-carboxylic acid (5-chloro-2-isopropoxy-phenyl)-amide] | 290
32 | O=C(Nc1ccc2ncccc2c1)c1csc2cnc(NCCO)nc12 [Example 75, 2-(2-Hydroxy-ethylamino)-thieno[3,2-d]pyrimidine-7-carboxylic acid quinolin-6-ylamide] | 300
33 | COc1cnc2c(C(=O)Nc3cc(Cl)ccc3OC3CCC(O)CC3)cnn2c1 (stereo not drawn) [Example 76, 6-Methoxy-pyrazolo[1,5-a]pyrimidine-3-carboxylic acid [5-chloro-2-(4-hydroxy-cyclohexyloxy)-phenyl]-amide] | 301
34 | O=C(Nc1cc(Cl)ccc1OC1CCC(CO)C1)c1cnn2cccnc12 (stereo not drawn) [Example 77, Pyrazolo[1,5-alpha]pyrimidine-3-carboxylic acid [5-chloro-2-(3-hydroxymethyl-cyclopentyloxy)-phenyl]-amide] | 306
35 | O=C(Nc1cc(Cl)ccc1N1CCCC1)c1cnn2cccnc12 [Example 78, Pyrazolo[1,5-alpha]pyrimidine-3-carboxylic acid (5-chloro-2-pyrrolidin-1-yl-phenyl)-amide] | 312
36 | O=C(Nc1cc(Cl)ccc1N1CCCCC1)c1cnn2cccnc12 [Example 79, Pyrazolo[1,5-alpha]pyrimidine-3-carboxylic acid (5-chloro-2-piperidin-1-yl-phenyl)-amide] | 314
37 | O=C(Nc1cc2ccccc2cc1OCCCO)c1cnn2cccnc12 [Example 80, Pyrazolo[1,5-alpha]pyrimidine-3-carboxylic acid [3-(3-hydroxy-propoxy)-naphthalen-2-yl]-amide] | 327
38 | COc1cc2ccc(CO)cc2cc1NC(=O)c1cnn2cccnc12 [Example 82, Pyrazolo[1,5-alpha]pyrimidine-3-carboxylic acid (7-hydroxymethyl-3-methoxy-naphthalen-2-yl)-amide] | 358
39 | O=C(Nc1cc(Cl)ccc1OCCCO)c1cnn2cccnc12 [Example 84, Pyrazolo[1,5-alpha]pyrimidine-3-carboxylic acid [5-chloro-2-(3-hydroxy-propoxy)-phenyl]-amide] | 430
